From paper PMC8002512, “IRE1α Is a Therapeutic Target for Cystic Fibrosis Airway Inflammation” (International Journal of Molecular Sciences, 2021)

Target: T1, IRE1α (Homo sapiens, UniProt O75460)
T1 construct: gene ERN1; cytoplasmic portion, kinase and RNase domains, residues 547-977 of NP_001424, N-terminal His-tagged (Sf9)
Assay: TR-FRET (LanthaScreen) displacement of tracer […] from purified His-tagged IRE1α
Assay type: binding

T1 sequence (O75460 547-977): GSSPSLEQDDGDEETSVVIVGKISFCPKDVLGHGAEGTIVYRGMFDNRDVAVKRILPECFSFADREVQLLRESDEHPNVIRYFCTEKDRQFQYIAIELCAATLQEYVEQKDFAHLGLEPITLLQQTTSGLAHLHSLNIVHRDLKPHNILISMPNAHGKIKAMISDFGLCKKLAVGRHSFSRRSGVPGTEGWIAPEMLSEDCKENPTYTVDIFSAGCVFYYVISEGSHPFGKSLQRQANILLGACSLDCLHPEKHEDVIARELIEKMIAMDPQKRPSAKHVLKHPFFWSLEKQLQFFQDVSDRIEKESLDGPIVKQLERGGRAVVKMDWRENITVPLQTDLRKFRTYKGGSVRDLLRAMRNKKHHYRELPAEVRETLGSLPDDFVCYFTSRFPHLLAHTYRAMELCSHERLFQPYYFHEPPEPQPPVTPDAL

## CC(C)(C)c1nc(-c2ccc(NC(=O)Nc3cccc(C(F)(F)F)c3)c3ccccc23)c2c(N)nccn12 [KIRA6]
  Kd: 280 nM
